From US8592442B2, “Nilotinib HCl crystalline forms” (Teva Pharmaceutical Industries Ltd., priority 2008, dated 2013)
Structures can show the parent of a compound that is named as a salt.

Experiments:
[1] = Polymorphic conversion when heated; type: physicochemical
[2] = as described in WO '870; cited from earlier work
[3] = as described in WO '870; cited from earlier work; remark: listed apart in the source

Q: For `Cc1cn(-c2cc(NC(=O)c3ccc(C)c(Nc4nccc(-c5cccnc5)n4)c3)cc(C(F)(F)F)c2)cn1` [Nilotinib HCl crystalline form T17, Nilotinib HCl], which “conversion to other forms when heated” value [1] is on record?
A: The value was “does not convert to other forms when heated”.

Q: With `Cc1cn(-c2cc(NC(=O)c3ccc(C)c(Nc4nccc(-c5cccnc5)n4)c3)cc(C(F)(F)F)c2)cn1` [Nilotinib HCl form A, Nilotinib HCl] as the molecule, how does the “conversion to other polymorphs when heated” value [2] read?
A: The value was “converted to other polymorphs”.

Q: With `Cc1cn(-c2cc(NC(=O)c3ccc(C)c(Nc4nccc(-c5cccnc5)n4)c3)cc(C(F)(F)F)c2)cn1` [Nilotinib HCl form B, Nilotinib HCl] as the molecule, how does the “solubility in IPA” value [3] read?
A: The value was “not soluble in IPA”.
